From patent publication US12180226B2, “Spirotricycle RIPK1 inhibitors and methods of uses thereof” (Merck Sharp & Dohme LLC, priority 2021, dated 2024)
Structures can show the parent of a compound that is named as a salt.

Biological target: RIPK1 (recombinant GST-RIPK1 kinase domain, residues 1-327) (Homo sapiens (Human), UniProt Q13546)
Assay: RIPK1-ADP-Glo Enzymatic Assay
Type: biochemical
Details: ADP-Glo; 25 nM GST-RIPK1, 300 μM ATP; assay lower limit ~25 nM; read-out: RIPK1 V0 Ec50
Summary of the method: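 Using dephosphorylated MBP (3 μM) as substrate and 300 μM ATP, 25 nM baculovirus-produced enzyme was reacted for 150 min after a 30-min compound pre-incubation. Luminescent ADP detection followed; lower confidence limit ~25 nM.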

Sequence of RIPK1 (recombinant GST-RIPK1 kinase domain, residues 1-327) (Q13546 1-327): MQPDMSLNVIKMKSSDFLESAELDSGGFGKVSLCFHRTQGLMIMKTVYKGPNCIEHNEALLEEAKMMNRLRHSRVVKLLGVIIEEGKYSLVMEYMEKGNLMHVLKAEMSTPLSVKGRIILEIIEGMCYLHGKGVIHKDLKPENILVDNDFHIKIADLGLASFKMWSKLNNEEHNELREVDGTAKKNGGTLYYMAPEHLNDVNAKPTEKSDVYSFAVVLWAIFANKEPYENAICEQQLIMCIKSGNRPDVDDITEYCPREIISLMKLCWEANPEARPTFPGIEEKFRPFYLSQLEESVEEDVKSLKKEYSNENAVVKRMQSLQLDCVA

| Structure (SMILES) | EC50 [nM] |
| --- | --- |
| N#Cc1cc(N2CCC3(O[C@@H]4CC[C@@H](c5ccccc5)N4C3=O)C(F)C2)ncn1 (single isomer, unassigned) [Example 4.95, 6-((3[S or R],4[R or S], 5′S,7a′R)-3-fluoro-3′-oxo-5′-phenyltetrahydro-3′H-spiro[piperidine-4,2′-pyrrolo[2,1-b]oxazol]-1-yl)pyrimidine-4-carbonitrile] | 58.3 |
| NC(=O)c1ccc(N2CCC3(CC2)O[C@@H]2CC[C@@H](c4ccccc4)N2C3=O)n2nccc12 [Example 4.155, 7-[(5′S,7a′R)-3′-oxo-5′-phenyltetrahydro-1H,3′H-spiro[piperidine-4,2′-pyrrolo[2,1-b] [1,3]oxazol]-1-yl]pyrazolo[1,5-a] pyridine-4-carboxamide] | < 25 |
| CCOc1cnc(N2CCC3(CC2)O[C@@H]2CC[C@@H](c4cc(F)cc(F)c4)N2C3=O)nc1 [Example 4.57, (5′S,7a′R)-5′-(3,5-difluorophenyl)-1-(5-ethoxypyrimidin-2-yl)tetrahydro-3′H-spiro[piperidine-4,2′-pyrrolo[2,1-b] [1,3]oxazol]-3′-one] | 243 |
| N#Cc1ccc(N2CCC3(CC2)O[C@@H]2CC[C@@H](c4ccccc4)N2C3=O)n2ncc(Cl)c12 [Example 4.182, 3-chloro-7-[(5′S,7a′R)-3′-oxo-5′-phenyltetrahydro-1H,3′H-spiro[piperidine-4,2′-pyrrolo[2,1-b] [1,3]oxazol]-1-yl]pyrazolo[1,5-a] pyridine-4-carbonitrile] | < 25 |
| O=C1N2[C@@H](CC[C@H]2c2cc(F)cc(F)c2)OC12CCN(c1ncnn3ccnc13)CC2 [Example 4.228, (5′S,7a′R)-5′-(3,5-difluorophenyl)-1-(imidazo[2,1-f] [1,2,4]triazin-4-yl)tetrahydro-3′H-spiro[piperidine-4,2′-pyrrolo[2,1-b] [1,3]oxazol]-3′-one] | 78.9 |
| Cc1nc(N2CCC3(CC2)O[C@@H]2CC[C@@H](c4ccccc4)N2C3=O)ccc1C#N [Example 4.74, 2-methyl-6-[(5′S,7a′R)-3′-oxo-5′-phenyltetrahydro-1H,3′H-spiro[piperidine-4,2′-pyrrolo[2,1-b] [1,3]oxazol]-1-yl]pyridine-3-carbonitrile] | < 25 |
| O=C1N2C(=NC13CCN(c1ccnc4c(F)cnn14)CC3)CC[C@H]2c1cc(F)cc(F)c1 [Example 4.79, (S)-5′-(3,5-difluorophenyl)-1-(3-fluoropyrazolo[1,5-a]pyrimidin-7-yl)-6′,7′-dihydro-3′H,5′H-spiro[piperidine-4,2′-pyrrolo[1,2-a]imidazol]-3′-one] | < 25 |
| O=C1N2[C@@H](CC[C@H]2c2cc(F)cc(F)c2)OC12CC1CCC(C2)N1c1ccnc2c(F)cnn12 (stereo partly drawn) [Example 4.254, (5′S,7a′R)-5′-(3,5-difluorophenyl)-8-(3-fluoropyrazolo[1,5-a]pyrimidin-7-yl)tetrahydro-3′H-spiro[8-azabicyclo[3.2.1]octane-3,2′-pyrrolo[2,1-b] [1,3]oxazol]-3′-one] | 126 |
| N#Cc1cnc(N2CCC3(CC2)O[C@@H]2CC[C@@H](c4ccccc4)N2C3=O)c(F)c1 [Example 4.72, 5-fluoro-6-[(5′S,7a′R)-3′-oxo-5′-phenyltetrahydro-1H,3′H-spiro[piperidine-4,2′-pyrrolo[2,1-b] [1,3]oxazol]-1-yl]pyridine-3-carbonitrile] | 29.8 |
| O=C1N2[C@@H](CC[C@H]2c2ccccc2)OC12CN(c1ccnc3ccnn13)C2 [Example 4.136, (5′S,7a′R)-5′-phenyl-1-(pyrazolo[1,5-a]pyrimidin-7-yl)tetrahydro-3′H-spiro[azetidine-3,2′-pyrrolo[2,1-b] [1,3]oxazol]-3′-one] | < 25 |
| O=C(c1cc(F)ccc1F)N1CCC2(CC1)SC1CCC(c3ccccc3)N1C2=O (centres unmarked) [Example 1.24, 1-(2,5-difluorobenzene-1-carbonyl)-5′-phenyltetrahydro-3′H-spiro[piperidine-4,2′-pyrrolo[2,1-b] [1,3]thiazol]-3′-one] | 23 |

Other lines, results leading:

| EC50 [nM] | Structure (SMILES) |
| --- | --- |
| 31.8 | CCOc1cccc(C(=O)N2CCC3(CC2)O[C@@H]2CC[C@@H](c4cc(F)cc(F)c4)N2C3=O)n1 [Example 6.83, (5′S,7a′R)-5′-(3,5-difluorophenyl)-1-(6-ethoxypyridine-2-carbonyl)tetrahydro-3′H-spiro[piperidine-4,2′-pyrrolo[2,1-b] [1,3]oxazol]-3′-one] |
| < 25 | O=C(c1coc2ccccc12)N1CCC2(CC1)O[C@@H]1CC[C@@H](c3cc(F)cc(F)c3)N1C2=O [Example 5.70] |
| < 25 | COc1cc(C(=O)N2CCC3(CC2)O[C@@H]2CC[C@@H](c4ccccc4)N2C3=O)ccc1F [Example 6.158, (5′S,7a′R)-1-(4-fluoro-3-methoxybenzene-1-carbonyl)-5′-phenyl-tetrahydro-3′H-spiro [piperidine-4,2′-pyrrolo[2,1-b][1,3]oxazol]-3′-one] |
| < 25 | CN(C)c1cccc(C(=O)N2CCC3(CC2)O[C@@H]2CC[C@@H](c4cccc(F)c4)N2C3=O)c1 [Example 6.124, (5′S,7a′R)-1-[3-(dimethylamino)-benzene-1-carbonyl]-5′-(3-fluorophenyl) tetrahydro-3′H-spiro [piperidine-4,2′-pyrrolo[2,1-b][1,3]-oxazol]-3′-one] |
| 75.1 | Cc1ccc(C)c(C(=O)N2CCC3(CC2)O[C@@H]2CC[C@@H](c4ccccc4)N2C3=O)c1 [Example 6.142, (5′S,7a′R)-1-(2,5-dimethylbenzene-1-carbonyl)-5′-phenyl-tetrahydro-3′H-spiro [piperidine-4,2′-pyrrolo[2,1-b][1,3]oxazol]-3′-one] |
| < 25 | Cc1ccc(C(=O)N2CCC3(CC2)O[C@@H]2CC[C@@H](c4cc(F)cc(F)c4)N2C3=O)s1 [Example 5.34, (5′S,7a′R)-5′-(3,5-difluoro-phenyl)-1-(5-methylthio-phene-2-carbonyl)tetra-hydro-3′H-spiro[piperidine-4,2′-pyrrolo[2,1-b]oxazol]-3′-one] |
| < 25 | COc1ccc(F)c(C(=O)N2CCC3(CC2)O[C@@H]2CC[C@@H](c4cc(F)cc(F)c4)N2C3=O)c1 [Example 6.6, (5′S,7a′R)-5′-(3,5-difluorophenyl)-1-(2-fluoro-5-methoxy-benzene-1-carbonyl) tetrahydro-3′H-spiro [piperidine-4,2′-pyrrolo[2,1-b][1,3]oxazol]-3′-one] |
| 25.1 | COc1cccc(C(=O)N2CCC3(CC2)O[C@@H]2CC[C@@H](c4cc(F)cc(F)c4)N2C3=O)n1 [Example 6.12, (5′S,7a′R)-5′-(3,5-difluorophenyl)-1-(6-methoxypyridine-2-carbonyl)tetrahydro-3′H-spiro[piperidine-4,2′-pyrrolo[2,1-b] [1,3]oxazol]-3′-one] |
| < 25 | O=C(c1ccc2nscc2c1)N1CCC2(CC1)O[C@@H]1CC[C@@H](c3cc(F)cc(F)c3)N1C2=O [Example 6.42, (5′S,7a′R)-1-(2,1-benzothiazole-5-carbonyl)-5′-(3,5-difluorophenyl)tetra-hydro-3′H-spiro [piperidine-4,2′-pyrrolo[2,1-b][1,3]oxazol]-3′-one] |
| < 25 | Cc1nc(N2CCC3(CC2)O[C@@H]2CC[C@@H](c4ccccc4)N2C3=O)ccc1F [Example 11.33, (5′S,7a′R)-1-(5-fluoro-6-methylpyridin-2-yl)-5′-phenyltetrahydro-3′H-spiro[piperidine-4,2′-pyrrolo[2,1-b][1,3]oxazol]-3′-one] |
| 54.3 | N#Cc1ccc(N2CC3(C2)O[C@@H]2CC[C@@H](c4ccccc4)N2C3=O)n2ncnc12 [Example 13.23, 5-((5′S,′7a′R)-3′-oxo-5′-phenyltetrahydro-3′H-spiro[azetidine-3,2′-pyrrolo[2,1-b]oxazol]-1-yl)-[1,2,4]triazolo[1,5-a]pyridine-8-carbonitrile, TFA salt] |
| < 25 | O=C1N2C(CCC2c2cccc(F)c2F)OC12CCN(c1ccnc3ccnn13)CC2 (centres unmarked) [Example 20.7, 5′-(2,3-difluorophenyl)-1-(pyrazolo[1,5-a]pyrimidin-7-yl)tetrahydro-3′H-spiro[piperidine-4,2′-pyrrolo[2,1-b][1,3]oxazol]-3′-one] |
| 89.7 | O=C(c1nc(C2CC2)no1)N1CCC2(CC1)O[C@@H]1CC[C@@H](c3cc(F)cc(F)c3)N1C2=O [Example 6.35] |
| 36.6 | Cc1nc(N2CCC3(CC2)O[C@@H]2CC[C@@H](c4ccccc4)N2C3=O)ncc1-c1ccnn1C [Example 21.8, (5′S,7a′R)-1-[4-methyl-5-(1-methyl-1H-pyrazol-5-yl)pyrimidin-2-yl]-5′-phenyltetrahydro-3′H-spiro[piperidine-4,2′-pyrrolo[2,1-b][1,3]oxazol]-3′-one] |
| < 25 | Cc1cccc(C(=O)N2CCC3(CC2)O[C@@H]2CC[C@@H](c4cccc(F)c4)N2C3=O)c1F [Example 6.119, (5′S,7a′R)-1-(2-fluoro-3-methylbenzene-1-carbonyl)-5′-(3-fluoro-phenyl)tetrahydro-3′H-spiro[piperidine-4,2′-pyrrolo[2,1-b][1,3]oxazol]-3′-one] |
| 934 | N#Cc1cccnc1C(=O)N1CCC2(CC1)O[C@@H]1CC[C@@H](c3cc(F)cc(F)c3)N1C2=O [Example 6.103, 2-[(5′S,7a′R)-5′-(3,5-difluorophenyl)-3 oxotetrahydro-1H,3′H-spiro[piperidine-4,2′-pyrrolo[2,1-b][1,3]-oxazole]-1-carbonyl]-pyridine-3-carbonitrile] |
| < 25 | C#Cc1cccc(C(=O)N2CCC3(CC2)O[C@@H]2CC[C@@H](c4ccccc4)N2C3=O)c1 [Example 6.141, (5′S,7a′R)-1-(3-ethynylbenzene-1-carbonyl)-5′-phenyl-tetrahydro-3′H-spiro [piperidine-4,2′-pyrrolo[2,1-b][1,3]oxazol]-3′-one] |
| 221 | O=C1N2[C@@H](CC[C@H]2c2cc(F)cc(F)c2)OC12CCN(C(c1ccccc1)C(F)F)CC2 (stereo partly drawn) [Example 22.1, (5′S,7a′R)-1-(2,2-Difluoro-1-phenylethyl)-5′-(3,5-difluorophenyl)tetrahydro-3′H-spiro[piperidine-4,2′-pyrrolo[2,1-b]oxazol]-3′-one] |
